# Tests used:
# [1] = molecular target: T1, α-synuclein aggregate formed in the brain of the DLB patient (Homo sapiens, UniProt P37840); experiment: In vitro fluorescence microscope measurement, DLB patient brain sections; format: binding; settings: 30 μM compound, 50% ethanol, 30 minutes, room temperature, amygdala sections
# T1 construct: Postfixed fresh frozen sections of the amygdala tissue of the DLB patient; from tissue; host or cells: post-mortem human DLB amygdala, frozen sections
# Description: Postmortem human brains were obtained from autopsies carried out with respect to a dementia with Lewy bodies (DLB) and Alzheimer's disease (AD) patients.
# A frozen DLB tissue was sliced with a thickness of 20 μm in a cryostat (HM560, Carl Zeiss).
# Postfixed fresh frozen sections of the amygdala tissue of the DLB patient and formalin fixed, paraffin embedded sections of a deparaffinized middle frontal gyrus tissue of the AD patient were used. Thirty μM of each of the above compounds and brain sections were incubated in a 50% ethanol solution for 30 minutes at room temperature. The sections were then washed twice, i.e., washed with a 50% ethanol solution for 5 minutes and with ultrapure water for 3 minutes. After mounting the sections using a mounting medium (VECTASHIELD H-1000, Vector Laboratories), images of lesion-enriched areas on the sections were obtained using a fluorescence microscope (DM4000, Leica). Analysis software (Image J) was used to quantify the fluorescence of lesion-enriched and lesion-free (background) areas.
# [2] = molecular target: T2, lesion composed of the phosphorylated α-synuclein (Mus musculus, UniProt O55042); experiment: In vitro fluorescence microscope measurement, α-synuclein fibril-injected mouse brain sections; format: binding; settings: 30 μM, 20% ethanol, 30 minutes, room temperature
# T2 construct: from tissue; host or cells: brain of C57BL/6 mice inoculated in the striatum with recombinant murine α-synuclein fibrils (made in E. coli)
# Description: First, murine α-synuclein was expressed in and extracted from E. coli as a recombinant protein, and incubated in vitro to form an insoluble α-synuclein aggregate.
# Note that the α-synuclein aggregate was inoculated into the striatum of the mouse with the following manner. First, hair on the head of 9-week-old C57BL/6 male mouse anesthetized with 1.5% (v/v) isoflurane was removed, and the scalp was disinfected with isodine, followed by application of xylocaine and incision in the scalp to expose the skull. […]
# The brain of the α-synuclein fibril-injected mouse was extracted, sectioned, and analyzed by fluorescent staining. […] After mounting the sections using a mounting medium (VECTASHIELD H-1000), images of α-synuclein aggregate-enriched areas on the sections were obtained using a fluorescence microscope (DM4000). […] Immunohistochemical staining with an anti-phosphorylated α-synuclein monoclonal antibody (pS129, abcam, ab59264) (1:1000) was carried out, and after mounting the sections using a mounting medium (VECTASHIELD H-1000), images of the same areas were obtained using the fluorescence microscope (DM4000).
# α-synuclein lesions [3] = molecular target: T3, α-synuclein lesions (Mus musculus, UniProt O55042); experiment: In vivo two-photon laser scanning fluorescence microscopy of α-synuclein fibril-injected model mouse
# T3 construct: from tissue; host or cells: brain of C57BL/6 mice inoculated in the striatum with recombinant murine α-synuclein fibrils (made in E. coli)
# Description: Note that the α-synuclein aggregate was inoculated into the striatum of the mouse with the following manner. First, hair on the head of 9-week-old C57BL/6 male mouse anesthetized with 1.5% (v/v) isoflurane was removed, and the scalp was disinfected with isodine, followed by application of xylocaine and incision in the scalp to expose the skull. Then, a hole was drilled in the skull at a position of 0.05 mm posterior to the bregma and 2 mm lateral to the midline, and 3 μl of an α-synuclein fiber solution (murine α-synuclein fiber (4 mg/ml) in saline) was injected into a position […] ventral to the brain surface using a glass pipette, and then the scalp was returned and sutured.
# A model mouse was anesthetized with 1.5% (v/v) isoflurane 6 weeks after the injection of the α-synuclein fiber solution, and a cranial window was provided according to the Seylaz-Tomita method (Tomita et al. J Cereb Blood Flow Metab 25, 858-67, 2005). The mouse was anesthetized with 1.5% (v/v) isoflurane 2 weeks after the generation of the cranial window, and 50 μl of a solution of DMSO/physiological saline water=1:1 containing 0.05% of C05-05 or PBB3 was administered via the tail vein. The mouse was fixed under a two-photon laser fluorescence microscope 90 minutes after administration of C05-05 or 30 minutes after administration of PBB3, and 100 μl of a saline solution containing 5 mM of Sulforhodamine 101 was administered intraperitoneally, followed by intravital two-photon fluorescence imaging at an excitation wavelength of 900 nm. The detection wavelengths for C05-05 and PBB3 were set at 500 nm to 550 nm, and detection wavelengths for Sulforhodamine 101 were set at 573 nm to 648 nm.
# α-synuclein lesions [4] = molecular target: T3, α-synuclein lesions; experiment: Ex vivo imaging of α-synuclein fibril-injected model mouse brain; format: in vivo
# Description: A model mouse at 6 weeks after the injection of the α-synuclein fiber solution was anesthetized with 1.5% (v/v) isoflurane in a manner similar to that described in “(Preparation of α-synuclein fibril-injected mouse model)” above, and C05-05 (1.66 mg/kg) or BF-227 (1.66 mg/kg) was intraperitoneally administered.
# The brains were collected and frozen 90 minutes after the administration of C05-05 (or 120 minutes after the administration of BF-227), and frozen sections with the thickness of 20 μm were prepared in a cryostat (HM560). After mounting the sections using a mounting medium (VECTASHIELD H-1000), images of α-synuclein aggregate-enriched areas on the sections were obtained using a fluorescence microscope (DM4000).
# Moreover, the same sections were immersed and fixed overnight in a phosphate buffer solution containing 4% paraformaldehyde. The brain after fixation was washed under running water and then treated with an autoclave for the antigen retrieval. Immunohistochemical staining with an anti-phosphorylated α-synuclein monoclonal antibody (pS129, abcam, ab59264) (1:1000) was carried out, and after mounting the sections using a mounting medium (VECTASHIELD H-1000), images of the same areas were obtained using the fluorescence microscope (DM4000). FIG. 7(a) contains images showing the case where C05-05 was administered, and FIG. 7(b) is images showing the case where BF-227 was administered.
# [5] = molecular target: T4, A53T mutant human α-synuclein (Homo sapiens, UniProt P37840, A53T); experiment: Inhibitory effect on α-synuclein aggregation (seeded, sarkosyl-insoluble fraction, CBB staining); format: biochemical; settings: 37° C., 1 day
# T4 construct: made in house; host or cells: E. coli
# Description: First, A53T mutant human α-synuclein was expressed in and extracted from E. coli as a recombinant protein, and incubated in vitro to prepare α-synuclein aggregate seeds. To 0.02 μg of the α-synuclein aggregate seeds, C05-05 (in DMSO solution) was added at a final concentration of 20 μM, or 200 μM and stirred. An experiment in which only DMSO was added was conducted as a control experiment. These were suspended with 50 μL of A53T mutant human-synuclein monomer solution at a concentration of 1 mg/ml and then shaken at 37° C. for 1 day. Ten μL of the suspension was mixed with 90 μL of 1% sarkosyl and ultracentrifuged at 100 Krpm for 20 minutes, and a resulting precipitate was subjected to electrophoresis, followed by CBB staining of the gel. Images of the gels were obtained using an imager, and quantification of bands was carried out using analysis software (Image J).
smiles,measurement,setting,value
"CNc1ccc(C#C/C=C/c2nc3ccc(OCC(O)CF)cc3s2)cn1 (stereo not shown) [C05-05, (E)-1-fluoro-3-(2-(4-(6-(methylamino)pyridin-3-yl)but-1-en-3-ynyl)benzo[d]thiazol-6-yloxy)propan-2-ol]","binding to the α-synuclein aggregate formed in the brain of the DLB patient, reactivity relative to PBB3",[1],reactivity equal to or greater than that of PBB3
same,binding to phosphorylated α-synuclein lesion (co-staining with pS129 antibody),[2],binds to the lesion composed of the phosphorylated α-synuclein
same,contrast in detecting lesions relative to PBB3,α-synuclein lesions [3]; intravital two-photon imaging,higher contrast than PBB3
same,detection of α-synuclein lesions by intravital two-photon fluorescence imaging,"α-synuclein lesions [3]; tail vein, 50 μl of 0.05% solution, 90 minutes after C05-05 or 30 minutes after PBB3",bound to individual α-synuclein lesions
same,entry into the brain after intravenous injection,"α-synuclein lesions [3]; tail vein, model mouse",entered the brain of the living body
same,entry into the brain (ex vivo imaging),"α-synuclein lesions [4]; 1.66 mg/kg, model mouse",entered the brain
same,detection of α-synuclein lesions by ex vivo imaging,"α-synuclein lesions [4]; 1.66 mg/kg, brains collected 90 minutes after C05-05 or 120 minutes after BF-227",bound to individual α-synuclein lesions
same,contrast in detecting lesions relative to BF-227,α-synuclein lesions [4]; ex vivo imaging,higher contrast than BF-227
same,reduction of formation of insoluble α-synuclein aggregate compared with control experiment (DMSO),[5]; final concentration 20 μM,approximately 20%
same,reduction of formation of insoluble α-synuclein aggregate compared with control experiment (DMSO),[5]; final concentration 200 μM,approximately 60%
